Our source for the DILI_Concern and DILI_severity_class values is ChEMBL document CHEMBL4028802, “DILIrank: the largest reference drug list ranked by the risk for developing drug-induced liver injury in humans” (Drug Discov Today, 2016).

The species named for series [1] is Homo sapiens. In words: Liver toxicity in human assessed as induction of drug-induced liver injury by measuring verified drug-induced liver injury concern status.
The species named for series [2] is Homo sapiens. As to the kind of experiment: Liver toxicity in human assessed as induction of drug-induced liver injury by measuring severity class index.
Throughout, for DILI severity class: key of the grades not given here.

As to `CNCC[C@@H](Oc1ccccc1C)c1ccccc1` [ATOMOXETINE], the DILI_Concern result in the series listed under Homo sapiens [1] is listed as “Most-Dili-Concern”. For the same compound, the DILI_severity_class in the series listed under Homo sapiens [2] amounted to 8.
For `C=CCC1(C(C)CCC)C(=O)NC(=O)NC1=O` (configuration not stated) [SECOBARBITAL] the same measures were “Ambiguous-Dili-Concern” and 3.
As for `CCCCCOC(=O)Nc1nc(=O)n([C@@H]2O[C@H](C)[C@@H](O)[C@H]2O)cc1F` [CAPECITABINE], the DILI_Concern entry in the series listed under Homo sapiens [1] is “Ambiguous-Dili-Concern”. The DILI_severity_class in the series listed under Homo sapiens [2] worked out at 2.
For `CCC(C)C1(CC)C(=O)NC(=O)NC1=O` (configuration not stated) [BUTABARBITAL] the same measures were “Ambiguous-Dili-Concern” and 3.
For `CCc1nn(CCCN2CCN(c3cccc(Cl)c3)CC2)c(=O)n1CCOc1ccccc1` [NEFAZODONE] the same measures were “Most-Dili-Concern” and 8.
The like results for `O=C(c1cc(O)c(O)c(O)c1)c1ccc(O)c(O)c1O` [EXIFONE] were, in that order, “Most-Dili-Concern” and 8.
With `C=CCOc1ccc(CC(=O)O)cc1Cl` [ALCLOFENAC], the DILI_Concern entry in the series listed under Homo sapiens [1] is “Most-Dili-Concern”. The DILI_severity_class in the series listed under Homo sapiens [2] is listed as 8.
Regarding `Nc1nc(N)c2nc(-c3ccccc3)c(N)nc2n1`, in the series filed under Homo sapiens [1], the DILI_Concern entry is “Less-Dili-Concern”. The DILI_severity_class in the series listed under Homo sapiens [2] is reported as 5.
The like results for `NCC1O[C@H](O[C@H]2[C@@H](O)[C@H](O[C@H]3[C@H](O)[C@@H](N)C[C@@H](N)[C@@H]3O[C@H]3O[C@H](CN)[C@@H](O)[C@H](O)[C@H]3N)O[C@@H]2CO)[C@H](N)[C@@H](O)[C@@H]1O` (some centres not stated) were, in that order, “No-Dili-Concern” and 0.
On to `Cl.Cl.O=C(O)COCCN1CCN([C@H](c2ccccc2)c2ccc(Cl)cc2)CC1` [LEVOCETIRIZINE DIHYDROCHLORIDE], for which the DILI_Concern entry in the series listed under Homo sapiens [1] is “Less-Dili-Concern”. In addition, the DILI_severity_class in the series listed under Homo sapiens [2] turned out to be 4.
In the case of `CC(O)(P(=O)(O)O)P(=O)(O)O` [ETIDRONIC ACID], the DILI_Concern entry in the series listed under Homo sapiens [1] is reported as “No-Dili-Concern”. Also, in the series listed under Homo sapiens [2], the DILI_severity_class came out at 0.
As for `COC(c1ccccc1)(c1ccccc1)[C@H](Oc1nc(C)cc(C)n1)C(=O)O` [AMBRISENTAN], the DILI_Concern entry in the series filed under Homo sapiens [1] is “Ambiguous-Dili-Concern”. Besides, the DILI_severity_class in the series filed under Homo sapiens [2] is on record as 7.
As for `COC(=O)N[C@H](C(=O)N[C@@H](Cc1ccccc1)[C@@H](O)CN(Cc1ccc(-c2ccccn2)cc1)NC(=O)[C@@H](NC(=O)OC)C(C)(C)C)C(C)(C)C` [ATAZANAVIR], the DILI_Concern result in the series listed under Homo sapiens [1] is on record as “Less-Dili-Concern”. For the same compound, in the series listed under Homo sapiens [2], the DILI_severity_class was determined as 3.
For `COCCOC(=O)C1=C(C)NC(C)=C(C(=O)OC(C)C)C1c1cccc([N+](=O)[O-])c1` (configuration not stated) [NIMODIPINE] the same measures were “Ambiguous-Dili-Concern” and 3.
In the case of `CN(C)CCCC1(c2ccc(F)cc2)OCc2cc(C#N)ccc21` (configuration not stated) [CITALOPRAM], the DILI_Concern result in the series filed under Homo sapiens [1] is reported as “Less-Dili-Concern”. Further, the DILI_severity_class in the series listed under Homo sapiens [2] was 7.
`CCCCCNC(=N)N/N=C/c1c[nH]c2ccc(OC)cc12` [TEGASEROD]: the DILI_Concern entry in the series filed under Homo sapiens [1] is reported as “Ambiguous-Dili-Concern”. Further, the DILI_severity_class in the series listed under Homo sapiens [2] was 3.
For `O=C(O)c1cn(C2CC2)c2cc(N3CCNCC3)c(F)cc2c1=O` [CIPROFLOXACIN] the same measures were “Most-Dili-Concern” and 7.
For SIMETHICONE the same measures were “No-Dili-Concern” and 0.
For `CCCC(C)C1(CC)C(=O)NC(=O)NC1=O` (configuration not stated) [PENTOBARBITAL] the same measures were “Ambiguous-Dili-Concern” and 3.
For `Cc1cc(C(=O)NNCc2ccccc2)no1` [ISOCARBOXAZID], the DILI_Concern entry in the series filed under Homo sapiens [1] was “Ambiguous-Dili-Concern”. For the same compound, the DILI_severity_class in the series filed under Homo sapiens [2] was 5.
The like results for `O=P(O)(O)C(O)(Cc1cccnc1)P(=O)(O)O` [RISEDRONIC ACID] were, in that order, “Ambiguous-Dili-Concern” and 3.
